The values that follow come from paper PMC6094399, “New tools for carbohydrate sulfation analysis: heparan sulfate 2-O-sulfotransferase (HS2ST) is a target for small-molecule protein kinase inhibitors” (Biochemical Journal, 2018).

“And” between values parts separate entries of the source, which are not always exact repeats. Identical values can stand only once. “Also recorded” adds a separate entry of the source. Like-named read-outs stand apart in the source and are kept apart here. A value given as a limit tells only on which side of the number the result lay.

The test system of data set [1] is MBP. As to the kind of experiment: DSF thermal shift control with MBP. The format is binding. The conditions noted are these: 0.5 mM PAPS, 10 μM heparin or 5 mM maltose; result in words.
Data set [2] has as its target T1, HS2ST (Gallus gallus, UniProt Q76KB1).
T1 construct: made in house; host or cells: Escherichia coli Rosetta-gami (DE3), modified pMAL-c2x plasmid
T1 sequence (Q76KB1 69-356): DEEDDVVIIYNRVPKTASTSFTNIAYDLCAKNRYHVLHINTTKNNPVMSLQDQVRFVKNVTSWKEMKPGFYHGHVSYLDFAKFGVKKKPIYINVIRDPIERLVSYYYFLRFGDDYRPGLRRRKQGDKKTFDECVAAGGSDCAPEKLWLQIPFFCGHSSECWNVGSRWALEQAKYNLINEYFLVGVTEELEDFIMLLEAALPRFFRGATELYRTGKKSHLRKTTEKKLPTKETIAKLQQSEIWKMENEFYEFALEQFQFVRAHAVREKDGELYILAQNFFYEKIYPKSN
As to the kind of experiment: DSF thermal shift/stability assay of MBP-HS2ST. It is filed as binding, Chicken. The conditions noted are these: 5 μM MBP-HS2ST; for thermal stabilisation of HS2ST (DSF): result in words.

For data set [3], the target named is T1, HS2ST. Put plainly: Microfluidic mobility shift sulfation assay with fluorescent hexasaccharide substrate. The format is biochemical, Chicken. The conditions noted are these: for mode of HS2ST inhibition: increasing concentration of PAPS, 10 μM PAP, 0.5 mM CoA or 20 μM rottlerin; for HS2ST inhibition (dose-response): 1 μM PAPS, 15 min at 20°C (Figure 4C); for HS2ST inhibition: concentrations as high as 400 μM (Supplementary Figure S9B). An excerpt: (§1) N-sulfated, fluorescein-tagged hexasaccharide glycan substrate (GlcNS–GlcA–GlcNS–IdoA–GlcNS–GlcA-fluorescein, where S = sulfation) containing either L-IdoA or D-GlcA residues at the third residue from the reducing end (to which a linker and the fluorophore were conjugated) was both purchased from GLYCAN therapeutics (www.glycantherapeutics.com). […] Chemically modified heparins were generated through a published procedure, whereas oligosaccharides from Iduron were generated enzymatically. Non-radioactive microfluidic mobility shift carbohydrate sulfation assays were optimised in solution with a 12-sipper chip coated with CR8 reagent and a PerkinElmer EZ Reader II system using EDTA-based separation buffer and real-time kinetic evaluation of substrate sulfation. Pressure and voltage settings were adjusted manually to afford optimal separation of the sulfated product and non-sulfated hexasaccharide substrate, with a sample (sip) volume of 20 nl, and total assay times appropriate for the experiment. […] The degree of oligosaccharide sulfation was directly calculated using the EZ Reader software by measuring the sulfo oligosaccharide : oligosaccharide ratio at each time-point. The activity of HS2ST enzymes in the presence of biochemicals and small-molecule inhibitors was quantified in ‘kinetic mode’ by monitoring the amount of sulfated glycan generated over the assay time, relative to control assay with no additional inhibitor molecule (DMSO control). […] Km and IC50 values were determined by nonlinear regression analysis with GraphPad Prism software.
The PKIS chemical library (Supplementary Figure S6, designated as SB, GSK or GW compound sets) comprises 367 largely ATP-competitive kinase inhibitors, covering 31 chemotypes originally designed to inhibit 24 distinct protein kinase targets. Compounds were stored frozen as a 10 mM stock in DMSO. The library is characterised as highly drug-like (∼70% with molecular mass <500 Da and clogP values <5). […] For inhibition assays, competition assays or individual IC50 value determination, a compound range was prepared by serial dilution in DMSO and added directly into the assay to the appropriate final concentration. All control experiments contained 4% (v/v) DMSO, which had essentially no effect on HS2ST activity. Individual chemicals and glycan derivatives were prepared and evaluated using NMR, HPLC, DSF or microfluidics-based assay protocols, as described above.

Data set [4] deals with hormone iodotyrosine sulfotransferases. Particulars: read-out: Km for PAPS; human hormone iodotyrosine sulfotransferases; cited from earlier work.
The test system of data set [5] is catalytic subunit of cAMP-dependent protein kinase (PKAc). As to the kind of experiment: DSF thermal shift of recombinant PKAc. The format is binding. The conditions noted are these: 5 μM PKAc.
The test system of data set [6] is HS2ST. Particulars: read-out: Km for PAPS; HS2ST using desulfated heparin as a substrate; cited from earlier work.
For data set [7], the system named is tyrosyl sulfotransferase. Particulars: read-out: Km for PAPS; tissue-purified tyrosyl sulfotransferase; cited from earlier work.
The test system of data set [8] is GlcNAc-6-sulfotransferase NodH. The conditions noted are these: read-out: Km for PAPS; PAPS-dependent GlcNAc-6-sulfotransferase NodH; cited from earlier work.
Substrate in data set [9]: Nc1ncnc2c1ncn2C1OC(COP(=O)(O)OS(=O)(=O)O)C(OP(=O)(O)O)C1O
As to the kind of experiment: Microfluidic mobility shift sulfation assay with fluorescent hexasaccharide substrate. It is filed as biochemical, Chicken. Particulars: other: 20 nM HS2ST, fluorescein-labelled IdoA hexasaccharide substrate; pH 7.4.
Description: as §1, with “sulfation.” for “sulfation. Pressure and voltage settings were adjusted manually to afford optimal separation of the sulfated product and non-sulfated hexasaccharide substrate, with a sample (sip) volume of 20 nl, and total assay times appropriate for the experiment.”, “software. […]” for “software.”

The mark [10] stands for this setting: nucleotides, 20 nM HS2ST, 10 μM PAPS, absence of MgCl2, 15 min, read-out: IC50.
[11] abbreviates: 20 nM HS2ST, 10 μM PAPS (Figure 3D), read-out: IC50.
The mark [12] stands for this setting: positive controls of the PKIS enzyme re-screen (Figure 4B, Supplementary Figures 7 and 8), read-out: IC50.

Take `OC[C@H]1O[C@H](O[C@H]2[C@H](O)[C@@H](O)C(O)O[C@@H]2CO)[C@H](O)[C@@H](O)[C@@H]1O` (mixture of isomers) [maltose]: in data set [1], the “thermal stabilisation of MBP (DSF)” value is on record as “characteristic stabilisation profile”.

In the case of `Nc1ncnc2c1ncn2[C@@H]1O[C@H](COP(=O)(O)OP(=O)(O)O)[C@@H](O)[C@H]1O` [ADP, adenosine 5′-diphosphate], the “thermal stabilisation of HS2ST (DSF)” value in data set [2] is recorded as “effective at protecting HS2ST from thermal denaturation”.

`Nc1ncnc2c1ncn2[C@@H]1O[C@H](COP(=O)(O)O)[C@@H](O)[C@H]1O` [AMP, adenosine 5′-monophosphate]: the “thermal stabilisation of HS2ST (DSF)” value in data set [2] was “not”.

Consider `Nc1ncnc2c1ncn2[C@@H]1O[C@H](COP(=O)(O)OP(=O)(O)OP(=O)(O)O)[C@@H](O)[C@H]1O` [ATP, adenosine 5′-triphosphate], for which the half-inhibitory concentration (IC50) in [3] (setting [10]) is 466000 nM.

For the molecule `CC(C)(COP(=O)(O)OP(=O)(O)OC[C@H]1O[C@@H](n2cnc3c(N)ncnc32)[C@H](O)[C@@H]1OP(=O)(O)O)[C@@H](O)C(=O)NCCC(=O)NCCS` [CoA, coenzyme A], in [3], the “mode of HS2ST inhibition” value is given as “PAPS-competitive mode of inhibition”. Besides, in [3] (setting [10]), the IC50 is 65000 nM. Also, in [2], the “thermal stabilisation of HS2ST (DSF)” value is listed as “clearly induced thermal stabilisation”.

`Nc1nc2c(ncn2[C@@H]2O[C@H](COP(=O)(O)OP(=O)(O)OP(=O)(O)O)[C@@H](O)[C@H]2O)c(=O)[nH]1` [GTP, guanosine 5′-triphosphate]: the “thermal stabilisation of HS2ST (DSF)” value in data set [2] is recorded as “effective at protecting HS2ST from thermal denaturation”.

In the case of `O=C1Nc2ccc(I)cc2C1=Cc1cc(Br)c(O)c(Br)c1` [GW305074], the “HS2ST inhibition (dose-response)” value in data set [3] (20 nM HS2ST, result in words) was “mid-micromolar HS2ST inhibitor”.

Consider `COC(=O)c1ccc2c(c1)C(=Cc1cc(Br)c(O)c(Br)c1)C(=O)N2` [GW405841X], for which, in data set [3] (20 nM HS2ST, result in words), the “HS2ST inhibition (dose-response)” value was “did not inhibit HS2ST at any concentration tested”.

`[Mg+2]` [Mg^2+]: the HS2ST enzyme activity entry in [3] (high (>1 mM) concentrations of Mg2+ ions, relative to buffer controls, result in words) is listed as “concentration-dependent increases”. Also, the thermal shift (ΔTm) in [2] (DSF) is ~3 °C.

With `Nc1ncnc2c1ncn2C1OC(COP(=O)(O)O)C(OP(=O)(O)O)C1O` (stereo not drawn) [PAP, adenosine 3′–5′-diphosphate], the “mode of HS2ST inhibition” value in [3] is “PAPS-competitive mode of inhibition”. Also, the IC50 in data set [3] (setting [10]) is ~2000 nM. In data set [2], the “thermal stabilisation of HS2ST (DSF)” value is reported as “did not abrogate HS2ST binding”.

`Nc1ncnc2c1ncn2C1OC(COP(=O)(O)OS(=O)(=O)O)C(OP(=O)(O)O)C1O` (stereo not drawn) [PAPS, adenosine 3′-phosphate 5′-phosphosulfate]: the Michaelis constant (Km) was 1.5 µM in data set [4], 18.5 µM in [6], 10 µM in [7] and ~4.3 µM in data set [8]. For the same molecule, the “thermal stabilisation of PKAc (DSF)” value in [5] (0.5 mM PAPS, result in words) is “did not stabilise”. The “thermal stabilisation of MBP (DSF)” value in data set [1] is given as “neither PAPS nor heparin induced stabilisation”. Moreover, in data set [2], the “thermal stabilisation of HS2ST (DSF)” value is recorded as “positively shifted (stabilised); also recorded: dose-dependent stabilisation”.

With `CC(=O)SCCNC(=O)CCNC(=O)[C@H](O)C(C)(C)COP(=O)(O)OP(=O)(O)OC[C@H]1O[C@@H](n2cnc3c(N)ncnc32)[C@H](O)[C@@H]1OP(=O)(O)O` [acetyl CoA], in data set [2], the “thermal stabilisation of HS2ST (DSF)” value is recorded as “clearly induced thermal stabilisation”.

Consider `O=C(O)C1=CC(=C(c2ccc(O)c(C(=O)O)c2)c2ccc(O)c(C(=O)O)c2)C=CC1=O` [aurintricarboxylate, aurintricarboxylic acid], for which the IC50 in data set [3] (setting [11]) was 123 ± 7 nM; in data set [3] (setting [12]) it was ~90 nM.

Turning to `CC(C)(C)c1nc(-c2cccc(NS(=O)(=O)c3c(F)cccc3F)c2F)c(-c2ccnc(N)n2)s1` [dabrafenib], in [3] (result in words), the HS2ST inhibition entry is on record as “unable to inhibit HS2ST”.

Take `CC(C)(COP(=O)(O)OP(=O)(O)OC[C@H]1O[C@@H](n2cnc3c(N)ncnc32)[C@H](O)[C@@H]1O)[C@@H](O)C(=O)NCCC(=O)NCCS` [dephospho-CoA, 3′-dephosphoCoA]: the “thermal stabilisation of HS2ST (DSF)” value in data set [2] is “abolished this effect”.

With `CC(=O)c1c(O)c(C)c(O)c(Cc2c(O)c3c(c(C(=O)/C=C/c4ccccc4)c2O)OC(C)(C)C=C3)c1O` [rottlerin], the IC50 in data set [3] (IC50, 20 nM HS2ST, 10 μM PAPS (Figure 3D)) was 6400 nM; in data set [3] (IC50, positive control of the PKIS enzyme re-screen (Figure 4B, Supplementary Figures 7 and 8)), ~8000 nM. Besides, the “mode of HS2ST inhibition” value in data set [3] is “competitive mode of HS2ST inhibition”.

As to `CN[C@@H]1C[C@H]2O[C@@](C)([C@@H]1OC)n1c3ccccc3c3c4c(c5c6ccccc6n2c5c31)C(=O)NC4` [staurosporine], in [2], the “thermal stabilisation of HS2ST (DSF)” value is “neither the pan-kinase inhibitor staurosporine nor several FDA-approved tyrosine kinase inhibitors caused thermal stabilisation”.

Regarding `Cc1ccc(C(=O)Nc2ccc(S(=O)(=O)O)c3cc(S(=O)(=O)O)cc(S(=O)(=O)O)c23)cc1NC(=O)c1cccc(NC(=O)Nc2cccc(C(=O)Nc3cc(C(=O)Nc4ccc(S(=O)(=O)O)c5cc(S(=O)(=O)O)cc(S(=O)(=O)O)c45)ccc3C)c2)c1` [suramin], the IC50 is 40 ± 1 nM in data set [3] (setting [11]) and ~20 nM in data set [3] (setting [12]).

For `CCCS(=O)(=O)Nc1ccc(F)c(C(=O)c2c[nH]c3ncc(-c4ccc(Cl)cc4)cc23)c1F` [vemurafenib], the HS2ST inhibition result in data set [3] (result in words) is listed as “unable to inhibit HS2ST”.

Turning to Mg-ATP, the thermal shift (ΔTm) in data set [5] (0.5 mM ATP and 10 mM MgCl2) is > 4 °C.

B1: HS2ST (Gallus gallus) (protein)
chain: T1 sequence (Q76KB1 69-356)
notes: made in house; host or cells: Escherichia coli Rosetta-gami (DE3), modified pMAL-c2x plasmid
Consider B1, for which the Km in data set [9] was 1.03 ± 0.2 µM and 1 µM and 1.0 µM.
